We go through nine compounds from paper PMC9063426, “MAP kinases differentially bind and phosphorylate NOS3 via two unique NOS3 sites” (FEBS Open Bio, 2022).

Entries after “also recorded” stand apart in the source; their conditions may differ. Where a SMILES comes first, the peptide text is derived from it. Where no end group is shown, it is not given here.

One assay deals with NOS1. The note with it: previous studies; ref [4]; cited from earlier work. The source says: While there is substantial nonspecific binding inherent in the NOS1 sample, it is quite clear that there is no observable specific binding. […] The NOS1 isoform lacks the pentabasic sequence in the autoinhibitory loop that we hypothe ...
In assay [1] the test system is NOS3. The experiment in a line: Oxyhemoglobin assay of NO production by kinase-treated NOS3. The note with it: oxyHb assay, 2.5 µM NOS3 with ERK2 14 nM (N = 10), p38α 14 nM (N = 4), JNK1α1-GST 63 nM (N = 3) or PKA 14 nM (N = 4), 30 min; versus untreated NOS3. Type of assay: biochemical, human. Here is the method:
(§1) Active (HIS‐NOS3) was incubated alone or with individual kinases (ERK2, p38α, JNK1α1, and PKA) in 100 µL reaction buffer (20 mM HEPES, 0.5 mM DTT, 5 mM MgCl2, 0.5 mM ATP, and 10% glycerol at a pH of 7.4). The reactions were performed at 22‐25 °C for up to 1 h, and for the examination of nitric oxide activity, samples were incubated on ice for the immediate detection of NO via the oxyhemoglobin to methemoglobin assay (see below). For immunoblotting analysis to examine phosphorylation, kinase samples were quenched with 2× sample buffer spiked with 25 mM DTT and heated to 95 °C for 5 min. Boiled samples (at equal volumes) were electrophoresed and transferred to PDVF for immunoblot staining.
The oxyhemoglobin assay (oxyHb assay) is a spectroscopic method that measures the oxidative reaction of oxyhemoglobin at 421 nm (oxyHb) and methemoglobin (metHb) at 401 nm. Kinase assay reactions quenched on ice were used to measure NO synthesis and consumption. All oxyHb reactions were performed at 25 °C in a BioTek 96‐well UV‐visible spectrophotometer. Each reaction (100 µL total volume) was mixed with 40 µL of reaction buffer (1 μM FAD, 1 μM FMN, 10% glycerol, 12 nM BH4, 100 μM L‐arginine, 10 mM Tris/HCl, pH 7.5 at 25°, 250 μM CaCl2, 0.20 mg·mL^−1 BSA, 0.31 mg Hemoglobin, 7–10 U Superoxide Dismutase, 7–10 U Catalase, and 17 μg Calmodulin) and up to 40 µL (6–10 µg) of phosphorylated NOS3. Absorbance at 401 nm and 421 nm were read for 1 m at 15‐s intervals. To initiate the reaction, 20 µL of 200 mM NADPH reconstituted in Tris/HCl (1.4 M pH 7.5 at room temperature) was added. Measurements were recorded for 10 min at 15‐s intervals.
To calculate NOS3 activity, the change in absorbance/unit time was divided by the extinction coefficient (ε401‐421 = 77 200 M ^−1cm^−1 (ε401 = 38 600 M ^−1cm^−1)). This yielded NOS3 activity in units of molar change/unit time. Activity of kinase exposed NOS3 was compared to the NOS3 control activity (comparably treated NOS3 but not phosphorylated), and the data are presented as a percent of the control NOS3.

Assay [2] relates to NOS3. In words: In vitro kinase assay with NOS3, phospho-specific immunoblotting. Type of assay: biochemical, human. The settings on record: active kinases with NOS3, 5 and 60 min. Here is the method:
as §1
All samples were loaded at equal volumes on 3–8% gradient tris‐acetate gels. All gels were transferred to PVDF membranes and transferred for either 2 h at 40V or for 20V overnight. Membranes were blocked with one block (Li‐Cor Biosciences) for 30 m and incubated with respective antibodies (at manufacturers recommend concentrations for immunoblotting, 1 : 500 for the anti‐pS600‐NOS3) overnight at 4 °C. Blots were brought to RT for 30 m and washed 3× with 1X TBST for 10 m, probed with a fluorometric secondary antibody (Li‐Cor IRDye®) for 1 h, and washed before visualizing with a Li‐Cor Odyssey.

The target of assay [3] is NOS3. The note with it: full-length NOS3; previously reported; ref [4]; cited from earlier work. The source says: While there is substantial nonspecific binding inherent in the NOS1 sample, it is quite clear that there is no observable specific binding. […] This was not surprising since others have qualitatively shown an interaction between NOS3 and JNK [10] and the MAP kinases have similarities in the requirements of binding to activators and substrates. Lack of binding to NOS1 by all three MAP kinases examined thus far strengthens the interpretation that NOS3 is a node for MAP kinase signaling, while NOS1 and NOS2 are not.

A further assay has as its target T1, JNK1α1 (Homo sapiens, UniProt P45983).
T1 construct: GST; host or cells: E. coli BL21(DE3) pLysS
The experiment in a line: BLI binding of biotinylated NOS3 peptides to JNK1α1. The settings on record: for Kd / koff / kon: BLI, global one-state fit; for Kd: inactive (unphosphorylated) JNK1α1 31-1000 nM, biotinylated peptide ligand, 25 °C, PBS, 10% glycerol, 0.005% tween, 1 mM DTT; for koff / kon: inactive JNK1α1, 25 °C, PBS buffer; for binding of phosphopeptide: BLI sensorgram, kinase analyte JNK1α1. Here is the method: (§2) Biolayer interferometry (BLI) experiments were performed on a FortéBio (Menlo Park, CA) Octet QK biosensor using streptavidin (SA) sensors. Assays were performed in opaque 96‐well microplates at 25 °C. All volumes were 200 μL. Active GST‐JNK1α1 (SignalChem) was biotinylated by amine crosslinking to NHS‐LC‐LC‐biotin (succinimidyl‐6‐[biotinamido]‐6‐hexanamidohexanoate) (Thermo Fisher, Waltham, MA, USA). Reactions were performed at a 5 : 1 molar ratio of biotin to protein for 30 min at room temperature followed by separation of protein from free biotin by passage over a desalting column. Biotinylated JNK1α1 was loaded onto sensors for 300 s, which was sufficient to saturate them. Baseline was established by dipping sensors into binding buffer (50 mM Tris, pH 7.4, 10 mM NaCl, 10% glycerol, 0.01% Tween‐20) prior to moving sensors to wells containing varying concentrations of serially diluted NOS3 in the same buffer. Association was measured for 300 s, after which sensors were moved to wells containing buffer only and dissociation was monitored for another 300 s. Raw data were normalized for baseline drift by subtracting signal from a ligand‐saturated sensor exposed to buffer only throughout the experiment and then iteratively fit to a one‐state global association‐then‐dissociation binding model using GRAPHPAD Prism. Total binding was used for analysis as nonspecific binding measured by exposing sensors without ligand to analyte was negligible at all NOS3 concentrations used; that is, total binding was effectively specific binding due to very low nonspecific binding.
(§3) For peptide binding experiments, N‐terminally biotinylated peptides (Biomatik) (Table 1) in PBS with 10% glycerol, 0.005% tween, and 1 mM DTT were loaded onto SA sensors as above. After establishing baseline, sensors were exposed to serial dilutions of analyte MAP kinases ranging from 31 to 1000 nM. Peptide experiments were performed using parameters identical to the protein ligand experiments excepting the buffer was PBS with 10% glycerol, 0.005% tween, and 1 mM DTT throughout.
(§4) We tested both hypothesized interaction sites and the impact of nearby phosphorylation sites using: (a) a nonphosphorylated peptide corresponding to the putative NtMAP site (Fig. 1); (b) the identical peptide with S114 phosphorylated; (c) a nonphosphorylated peptide corresponding to the AI loop site; and (d) an identical peptide phosphorylated at the position corresponding to S633. The resultant sensorgrams are shown in Fig. 4 fit to global one‐state binding models to determine binding parameters. While there are complexities present in the data (see Discussion), a one‐state models fit very well to all peptide‐kinase curves. All three kinases bound both unphosphorylated peptides with submicromolar affinity that in most cases approximated the affinity observed for full‐length NOS3 reported above and in our prior report.

A further assay concerns the target T2, p38α (Homo sapiens, UniProt Q16539).
T2 construct: His; made in house; host or cells: E. coli BL21(DE3) pLysS
In words: BLI binding of biotinylated NOS3 peptides to p38α. The note with it: for koff / kon: BLI, inactive p38α, 25 °C, PBS buffer, global one-state fit; for binding of phosphopeptide: BLI sensorgram, kinase analyte p38α. As for the experimental part: as §2, §3, §4

The next assay concerns the target T3, ERK2 (Rattus norvegicus, UniProt P63086).
T3 construct: His; host or cells: E. coli BL21(DE3) pLysS
The experiment in a line: BLI binding of biotinylated NOS3 peptides to ERK2. The settings on record: for Kd / koff / kon: BLI, global one-state fit; for Kd: inactive (unphosphorylated) ERK2 31-1000 nM, biotinylated peptide ligand, 25 °C, PBS, 10% glycerol, 0.005% tween, 1 mM DTT; for koff / kon: inactive ERK2, 25 °C, PBS buffer; for binding of phosphopeptide: BLI sensorgram, kinase analyte ERK2. Here is the method: as §2, §3, §4

Assay [4] deals with NOS3. The experiment in a line: NOS3 phosphorylation status in HMEC-1 cells. Type of assay: cell-based, human. The note with it: data not shown. Here is the method: Human microvascular endothelial cells (HMEC‐1) (CRL‐3243, ATCC) were cultured in MCDB131 medium. HMEC‐1 cells were maintained as described by the ATCC in MCDB131 supplemented with 10% FBS, 1 µg·mL^−1 Hydrocortisone, 10 mM Glutamine, and 10 ng·mL^−1 Epidermal Growth Factor under an atmosphere of 5% CO2 at 37 °C.

The subject of assay [5] is NOS3. In words: TCSPC fluorescence lifetime, conformation of NOS3. The settings on record: FMN excited at 473 nm, detected at 525 nm. Here is the method: Time‐resolved intensity decays were recorded using time‐correlated single‐photon counting fluorescence lifetime spectrometry (TCSPC FLT) to determine whether phosphorylation by JNK1α1 changes the conformation of NOS3.

T2 sequence (Q16539 whole entry): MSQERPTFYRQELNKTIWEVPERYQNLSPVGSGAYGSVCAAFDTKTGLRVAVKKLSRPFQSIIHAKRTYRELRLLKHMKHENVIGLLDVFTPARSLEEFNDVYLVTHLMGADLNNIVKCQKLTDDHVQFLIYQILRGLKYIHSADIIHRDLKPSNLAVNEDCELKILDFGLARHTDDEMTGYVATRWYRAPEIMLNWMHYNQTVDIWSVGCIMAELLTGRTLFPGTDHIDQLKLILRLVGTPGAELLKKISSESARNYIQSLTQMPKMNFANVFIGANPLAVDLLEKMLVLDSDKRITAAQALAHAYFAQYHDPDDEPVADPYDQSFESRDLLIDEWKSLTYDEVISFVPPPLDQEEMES
T3 sequence (P63086 whole entry): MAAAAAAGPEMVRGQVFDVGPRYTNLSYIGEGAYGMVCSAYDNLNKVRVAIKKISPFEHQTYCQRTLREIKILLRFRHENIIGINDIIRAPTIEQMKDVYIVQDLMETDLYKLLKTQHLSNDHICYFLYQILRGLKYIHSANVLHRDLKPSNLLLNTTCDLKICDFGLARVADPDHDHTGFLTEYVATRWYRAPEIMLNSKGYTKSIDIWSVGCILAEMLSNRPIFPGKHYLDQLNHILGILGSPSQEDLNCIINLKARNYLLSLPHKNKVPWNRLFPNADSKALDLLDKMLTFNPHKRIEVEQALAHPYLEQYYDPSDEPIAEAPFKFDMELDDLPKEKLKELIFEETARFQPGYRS
T1 sequence (P45983 1-384 isoform P45983-2, species assumed): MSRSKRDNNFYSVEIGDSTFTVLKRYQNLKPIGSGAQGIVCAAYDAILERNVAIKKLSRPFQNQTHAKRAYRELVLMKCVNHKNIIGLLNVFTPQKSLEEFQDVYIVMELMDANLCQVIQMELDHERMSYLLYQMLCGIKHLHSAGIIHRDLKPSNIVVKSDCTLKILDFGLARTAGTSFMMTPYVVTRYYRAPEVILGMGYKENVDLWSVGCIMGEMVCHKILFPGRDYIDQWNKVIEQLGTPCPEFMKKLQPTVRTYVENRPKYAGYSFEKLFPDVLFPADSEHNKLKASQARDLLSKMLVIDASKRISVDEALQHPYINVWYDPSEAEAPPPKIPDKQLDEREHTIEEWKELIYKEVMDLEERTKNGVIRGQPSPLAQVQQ

In the case of “mitogen‐activated protein kinase 14 [p38α]”, in the assay with NOS1, the “binding to NOS1” value was “no binding to NOS1”. For the same compound, the “NO production / NOS3 activity” value with NOS3 [1] is on record as “do not significantly change NO production; also recorded: did not alter in vitro NOS3 activity”. Further, in the assay with NOS3 [2] (immunoblot with anti-pS114), the “phosphorylation of NOS3 at S114” value is “phosphorylates both residues; also recorded: easily detected when compared to ERK2”. In the assay on NOS3 [2] (immunoblot with anti-pS600), the “phosphorylation of NOS3 at S600” value is given as “phosphorylates both residues; also recorded: robust when compared to JNK1α1”. The dissociation constant Kd at NOS3 [3] was 80 nM.
Turning to `CC(C)C[C@H](NC(=O)[C@H](CS)NC(=O)[C@H](CCCNC(=N)N)NC(=O)[C@H](CCCNC(=N)N)NC(=O)[C@@H]1CCCN1C(=O)[C@@H](NC(=O)[C@@H](N)CS)[C@@H](C)O)C(=O)NCC(=O)N[C@@H](CO)C(=O)N[C@@H](CC(C)C)C(=O)N[C@H](C(=O)N[C@@H](Cc1ccccc1)C(=O)N1CCC[C@H]1C(=O)N[C@@H](CCCNC(=N)N)C(=O)N[C@@H](CCCCN)C(=O)N[C@@H](CC(C)C)C(=O)N[C@@H](CCC(N)=O)C(=O)NCC(=O)N[C@@H](CCCNC(=N)N)C(=O)N1CCC[C@H]1C(=O)N[C@@H](CO)C(=O)N1CCC[C@H]1C(=O)NCC(=O)N1CCC[C@H]1C(=O)N1CCC[C@H]1C(=O)N[C@@H](C)C(=O)O)C(C)C` [NtMAP] (H-CTPRRCLGSLVFPRKLQGRPSPGPPA-OH), at JNK1α1, the Kd was found to be 38 nM, the dissociation rate constant (koff) stood at 0.00054 s⁻¹ and the kon was 14100 M⁻¹ s⁻¹. At p38α, the koff came out at 0.00053 s⁻¹ and the kon turned out to be 17300 M⁻¹ s⁻¹. Also, at ERK2, the affinity, expressed as Kd, was 940 nM; the koff was 0.00623 s⁻¹; the kon is 6600 M⁻¹ s⁻¹.
On to Epidermal Growth Factor [EGF], for which the NOS3 phosphorylation status entry in the assay on NOS3 [4] is recorded as “altered NOS3 phosphorylation status”.
As to Calmodulin [reference compound], the “conformation of NOS3 (fluorescence decay)” value in the assay with NOS3 [5] (NOS3 holoenzyme) is recorded as “produced a change in conformation indicative of active NOS3”. For the same compound, the “conformation of JNK1α1-treated NOS3 (fluorescence decay)” value in the assay with NOS3 [5] (calmodulin on JNK1α1-treated NOS3) is reported as “produced the same degree of shift (activation) in JNK1α1‐treated NOS3”.
In the case of “YKIRFNSISCSDPLVSSWRRKRKES*SNTDSA [AI with phosphorylated S633, AI loop peptide phosphorylated at the position corresponding to S633]”, the binding of phosphopeptide result on JNK1α1, at p38α and at ERK2 was “negligible binding” in each case.
As to “insulin: insulin, treatment of HMEC-1 cells”, the NOS3 phosphorylation status result in the assay on NOS3 [4] is given as “altered NOS3 phosphorylation status”.
With “CTPRRCLGSLVFPRKLQGRPS*PGPPA [NtMAP with phosphorylated S114, NtMAP peptide with S114 phosphorylated]”, the binding of phosphopeptide result on JNK1α1, at p38α and at ERK2 was “negligible binding” throughout.
As to “cAMP‐dependent protein kinase [PKA, reference compound]”, the “NO production / NOS3 activity” value with NOS3 [1] is “increased production of NO; also recorded: increased activity”.
As for YKIRFNSISCSDPLVSSWRRKRKESSNTDSA [AI], at JNK1α1, the dissociation constant Kd came out at 3 nM, the koff is 0.00025 s⁻¹ and the kon is 84600 M⁻¹ s⁻¹. At p38α, this compound had a koff of 0.00096 s⁻¹ and a kon of 15900 M⁻¹ s⁻¹. On ERK2, this compound registered a Kd of 170 nM, a koff of 0.002 s⁻¹ and a kon of 12100 M⁻¹ s⁻¹.
